The source of these data is PMC7790160 (Journal of pharmaceutical sciences, 2020).

Data set [1] has as its system HCC827. Nature of the data set: Cytotoxicity assay. The format is cell-based. The settings on record: HCC827, 48 h, single agent; no unit printed in Table 3 (b74 gives μM).
For data set [2], the system named is HCC827–4 μM (Acquired 4 μM ERL Resistant). Nature of the data set: Cytotoxicity assay. The format is cell-based. As to conditions: 48 h, single agent, no unit printed in Table 3 (b74 gives μM).
For data set [3], the system named is HCC827-Cl4 (T790M EGFR ERL Resistant). Nature of the data set: Cytotoxicity assay. The class given is cell-based. The settings on record: HCC827-CL4, 48 h, single agent; no unit printed in Table 3 (b74 gives μM).
Data set [4] relates to H1975 (T790M EGFR ERL Resistant). Nature of the data set: Cytotoxicity assay. The class given is cell-based. The settings on record: H1975, 48 h, single agent; no unit printed in Table 3 (b74 gives μM).
In data set [5] the test system is H1975-CL1 (EGFR G796D mutation rociletinib resistant). Nature of the data set: Cytotoxicity assay. The class given is cell-based. As to conditions: H1975 CL1, 48 h, single agent; no unit printed in Table 3 (b74 gives μM).
For a further data set, the system named is H460 (KRAS mutated). Nature of the data set: Cytotoxicity assay. The class given is cell-based.
The next data set relates to H1299 (p53 mutated). Nature of the data set: Cytotoxicity assay. The class given is cell-based. As to conditions: H1299, 48 h, single agent.
A further data set deals with NSCLC cell lines. Nature of the data set: Cytotoxicity assay, statements across cell lines. The class given is cell-based.
Data set [6] has as its system HCC827. Nature of the data set: Apoptosis assay. The class given is cell-based. As to conditions: 12 μM ERL, 2 μM CDODA-Me alone or in combination, 48 h.
The next data set relates to total EGFR. Nature of the data set: Western blot analysis of total EGFR. The settings on record: all cell lines, 48 h. The class given is cell-based. Background: In western blotting, separated proteins are transferred to a membrane and probed.
The test system of another data set is total MET. Nature of the data set: Western blot analysis of total MET. The class given is cell-based. As to conditions: all cell lines, 48 h.
For data set [7] the following is noted: cited from earlier work.
Another data set has as its system HCC827–4μM. Nature of the data set: Apoptosis assay. The class given is cell-based. The settings on record: 12 μM ERL alone or with 2 μM CDODA-Me, 48 h.
The test system of the next data set is HCC827-CL4. Nature of the data set: Apoptosis assay. The format is cell-based. The settings on record: 12 μM ERL alone or with 2 μM CDODA-Me, 48 h.
Another data set deals with H1975. Nature of the data set: Apoptosis assay. The format is cell-based. As to conditions: 12 μM ERL alone or with 2 μM CDODA-Me, 48 h.
The next data set has as its system H1975-CL1. Nature of the data set: Apoptosis assay. The format is cell-based. The settings on record: 12 μM ERL alone or with 2 μM CDODA-Me, 48 h.
The test system of data set [8] is H460. Nature of the data set: Apoptosis assay. The class given is cell-based. As to conditions: 12 μM ERL alone or with 2 μM CDODA-Me, 48 h.
For data set [9], the system named is HCC827. Nature of the data set: Clonogenic assay. The class given is cell-based. The settings on record: 12 μM ERL, 48 h, reseeded, p < 0.001.
The subject of another data set is HCC827–4 μM. Nature of the data set: Clonogenic assay. The format is cell-based. The settings on record: 12 μM ERL, 48 h, reseeded, p < 0.001.
The test system of data set [10] is H460. Nature of the data set: Clonogenic assay. The format is cell-based. The settings on record: 12 μM ERL, 48 h, reseeded, p < 0.001.
For another data set, the system named is p-EGFR. Nature of the data set: Western blot analysis of p-EGFR. The format is cell-based. As to conditions: 48 h.
Another data set deals with p-MET. Nature of the data set: Western blot analysis of p-MET. The format is cell-based. The settings on record: 12 μM ERL alone or with 2 μM CDODA-Me, 48 h.
Data set [11] has as its system EGFR mutated non–small cell lung cancer. As to conditions: patients harboring exon 19 deletion / exon 21 EGFR mutations; cited from earlier work.

On to `COC(=O)[C@@]1(C)CC[C@]2(C)CC[C@]3(C)C(=CC(=O)[C@@H]4[C@@]5(C)C=C(C#N)C(=O)C(C)(C)[C@@H]5CC[C@]43C)[C@@H]2C1` [CDODA-Me, Methyl 2-cyano-3, 11-dioxo-18b-olean-1, 12-dien-30-oate], for which the IC50 with HCC827 [1] was determined as 4.5 ± 1.6 µM; in [2], 4.4 ± 1.3 µM; in [3], 5.7 ± 2.04 µM; in [4], 6.2 ± 1.64 µM; in data set [5], 6.6 ± 1.1 µM; with H460 (KRAS mutated) (H460, 48 h, single agent, no unit printed in Table 3 (b74 gives μM)) it was 5.5 ± 0.8 µM. The IC50 with H1299 (p53 mutated) amounted to 5.4 ± 2.4 µM. Moreover, the cell viability with NSCLC cell lines (2 μM, all cell lines) is recorded as less than 20%. This compound showed a concentration for an effect of 20% (IC20) with NSCLC cell lines (resistant HCC827 cells) of 2 µM. Besides, the apoptotic cells result in the data set with HCC827 [6] is recorded as “approximately 21.68 ± 1.8%”. For the same compound, the “total EGFR expression” value with total EGFR is “no effect”. Moreover, the “total MET expression” value with total MET is “no effect”. For the same compound, the “permeability (classification)” value in data set [7] is listed as “high permeability”. Also, the “solubility (classification)” value in [7] is “low solubility”.

Regarding `C#Cc1cccc(Nc2ncnc3cc(OCCOC)c(OCCOC)cc23)c1` [ERL, erlotinib], the 50% inhibitory concentration (IC50) in the data set with H460 (KRAS mutated) (Homo sapiens, NCI-H460, 48 h) came out at 16.3 ± 1.2 µM. The apoptotic cells with HCC827 [6] was roughly 64.23 ± 1.7%; in the data set with HCC827–4μM, 11 ± 2.9%; with HCC827-CL4 it was 8 ± 2.5%; with H1975 it was 15 ± 3.7%; in the data set on H1975-CL1, 9 ± 2.7%; in the data set with H460 [8], 5 ± 4.3%. The colony formation entry in the data set with HCC827 [9], in the data set with HCC827–4 μM and with H460 [10] was “decreased colony formation” throughout. Moreover, the p-EGFR expression entry in the data set with p-EGFR (H1975-CL1, 12 μM ERL alone or with 2 μM CDODA-Me) is recorded as “not significant”. Also, the P-EGFR expression result in the data set with p-EGFR (HCC827, 12 μM ERL (p < 0.01) or 12 μM ERL + 2 μM CDODA-Me (p < 0.05)) is “significantly decreased”. In addition, the “expression of p-MET” value in the data set on p-MET (H1975-CL1, p < 0.001) is given as “decreased p-MET expression”; in the data set with p-MET (H1975, p < 0.01) it was “decreased p-MET expression”; with p-MET (HCC827-CL4, p < 0.01), “decreased p-MET expression”. Further, the “patients with decreased tumor volume” value in data set [11] was 70%.

One may read the IC50 as the concentration that gives 50% inhibition. A low value points to higher potency. As usually defined, the cell viability is a read-out of living cells in per cent, often relative to untreated cells. Low readings indicate a greater loss of cells, high ones better survival. By IC20 is commonly meant the point of the concentration-response curve where the effect stands at 20%.
